Experimental data from patent US20230087994A1, “TARGETED BIFUNCTIONAL DEGRADERS” (YALE UNIVERSITY, priority 2019, published 2023).
Values joined by “and” are separate entries in the source; they are usually repeats but may differ in a detail not shown here. Identical values can stand only once.

Columns and labels:
[1] = Pharmacokinetics of DNP-GN3 in nude mice; format: in vivo; conditions: 1 mpk
α-DNP antibody [2] = assay: Depletion of α-DNP antibody from serum in mice (ELISA); format: in vivo; conditions: i.p.; FIG. 79A
HepG2 cells [3] = assay: Subcellular localization of α-DNP antibody endocytosed via DNP-GN3 (microscopy); format: cell-based, human; conditions: after 12 hours
[4] = tested on: ASGPR on the surface of immortalized human hepatocyte HepG2 cells; assay: DNP-GN3-mediated ternary complex formation: association of fluorescently labeled α-DNP antibody with HepG2 cells in suspension; format: cell-based; conditions: for concentration of DNP-GN3 eliciting half-maximal fluorescence association: bell-shaped response, FIG. 86A
Excerpt: It was investigated whether DNP-GN3 could mediate the formation of a ternary complex between a fluorescently labeled α-DNP antibody and ASGPR on the surface of immortalized human hepatocyte HepG2 cells in suspension. […] The observed bell-shaped response to DNP-GN3 concentration is consistent with the prozone effect commonly observed in systems wherein a ternary complex is formed.

HepG2 cells [5] = assay: DNP-GN3-mediated endocytosis of fluorescently labeled α-DNP antibody by adherent HepG2 cells; format: cell-based, human
Procedure: It was next explored whether DNP-GN3 mediates the endocytosis of fluorescently labeled α-DNP antibody.
To explore the cellular mechanism of antibody uptake, cells were treated with chemical inhibitors of several endocytic pathways (FIG. 89).

α-DNP antibody [6] = assay: Depletion of α-DNP antibody from serum in mice (ELISA); format: in vivo; conditions: for serum α-DNP antibody levels compared to PBS: initial 200 μg monoclonal antibody, 21 days, nude mice
Procedure: FIG. 94 illustrates that serum levels of α-DNP antibody decrease more rapidly following repeated treatment with DNP-GN3. Serum antibody levels were measured using an ELISA assay. Each experimental group contained three mice. Statistical differences in experiments involving in vivo depletion of α-DNP antibody were assessed by repeated measures two-way ANOVA with Tukey's tests for post-hoc comparison of simple effects between each of the treatment groups and PBS.
Single doses of DNP-GN3 were also found to be efficacious at mediating α-DNP antibody depletion, albeit less effectively than daily dosing (FIG. 96). […] Therefore, it was concluded that DNP-GN3 is able to mediate the depletion of a monoclonal antibody from serum, and functions across a wide range of target protein concentrations and dosing regimens.
DNP-GN3 was also found to be efficacious in depleting polyclonal α-DNP antibody from serum collected from mice immunized with DNP-keyhole limpet haemocyanin (KLH) (FIG. 97). […] Thus, the small molecule DNP-GN3 is not restricted in function to only monoclonal mouse antibodies, but is also effective at removing polyclonal α-DNP antibodies from circulation in mice.

[7] = Tolerability of DNP-GN3 and DNP-OH3 in mice (body weight, AST, ALT); format: in vivo
Procedure: FIGS. 93A-93C illustrate that DNP-GN3 and DNP-OH3 are not toxic to mice at all tested concentrations. FIG. 93A: mouse body weight following treatment with DNP-GN3 or DNP-OH3. Statistical differences were analyzed by T test. FIG. 93B: levels of aspartate transaminase (AST) in treated mice. Dashed lines represent the normal range. FIG. 93C: levels of alanine transaminase (ALT) in treated mice. Dashed lines represent the normal range.

human MIF = biological target: T1, human MIF (Homo sapiens, UniProt P14174); assay: Depletion of injected recombinant human MIF from serum in mice; format: in vivo; set-up: injected into mice; conditions: control molecules; FIG. 136
T1 sequence (P14174 2-115 limits assumed): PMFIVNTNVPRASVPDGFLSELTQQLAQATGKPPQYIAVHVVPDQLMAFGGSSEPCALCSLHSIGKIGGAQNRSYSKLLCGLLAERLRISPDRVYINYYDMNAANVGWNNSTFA
Procedure: In vivo human MIF depletion experiments were undertaken to determine whether MIF-GN3 can mediate the depletion of injected recombinant human MIF from serum in mice. Mice were injected with five μg of the human MIF protein. In this experiment, one group of mice was also injected with a single 10 mpk dose of MIF-GN3 along with human MIF protein. It was observed that after four hours, the average level of human MIF in serum in the PBS-treated mice was 1.76 ng/mL (FIG. 134). In mice treated with 10 mpk MIF-GN3, however, the concentration of human MIF in serum was 0.68 ng/mL. One day after the initial injection, human MIF levels had reached background levels for both conditions. […] It was hypothesized that, due to the short half-life of human MIF in serum, investigating human MIF levels at earlier time points may be more informative.
Next, an experiment was performed to determine whether MIF-GN3 could enhance MIF clearance at time points earlier than four hours. Mice were coinjected with recombinant human MIF and 10 mpk MIF-GN3 via either i.p. or i.v. routes. For the PBS control arms, human MIF was injected with PBS. It was observed that in the absence of MIF-GN3, there was a spike in huMIF levels in circulation after 30 minutes (FIG. 135). In the presence of MIF-GN3, however, levels of MIF protein remained low at 30 minutes and no spike in its concentration was observed. By two hours, the levels of human MIF in circulation decreased to background levels. […] In a further experiment, whether an inhibitor of the MIF protein (3w) is able to mediate the protein's depletion from serum was determined. A bifunctional molecule that mediates the depletion of α-DNP antibody from serum was also assayed as a negative control. Neither of these molecules was expected to mediate the formation of a ternary complex between human MIF protein and ASGPR.
In order to confirm that mice injected with one or ten mpk MIF-GN3 had received the injection, and that the observed stability of MIF concentrations in MIF-GN3 treated mice was not the result of injection error, 200 μg of α-DNP antibody was coinjected with the MIF protein in this experiment. […] An investigation of the ability of MIF-GN3 to mediate the depletion of endogenous mouse MIF in vivo was next undertaken. Mice were treated with either PBS or 10 mpk of MIF-GN3. […] One possible explanation for this finding is that MIF protein may be synthesized rapidly, and any increase in degradation mediated by MIF-GN3 may not be of a large enough magnitude to impact the protein's level in serum.

With `CC(=O)NC1C(OCCOCCOCCNC(=O)CCOCC(COCCC(=O)NCCOCCOCCOC2OC(CO)C(O)C(O)C2NC(C)=O)(COCCC(=O)NCCOCCOCCOC2OC(CO)C(O)C(O)C2NC(C)=O)NC(=O)CNC(=O)COCCOCCOCCNc2ccc([N+](=O)[O-])cc2[N+](=O)[O-])OC(CO)C(O)C1O` (stereo not shown) [DNP-GN3] the “bioavailability via IP dosing” value [1] was “bioavailable”, the half-life in serum ([1]; IP) was 40.2 min and the “time at which maximal serum concentration is reached” value ([1]; IP) was 1 h. For the same compound, the “degradation of injected anti-DNP IgG antibodies in mouse serum” value (α-DNP antibody [2]) was “can induce degradation”, the “colocalization of endocytosed α-DNP antibody with early endosome marker EEA1” value (HepG2 cells [3]; FIG. 91A) was “No colocalization” and the “colocalization of α-DNP antibody with lysosome membrane protein LAMP2” value (HepG2 cells [3]; FIG. 91B) was “strong colocalization”. For the same compound, the “concentration of maximal ternary complex formation” value ([4]; DNP-GN3) was 20 nM and 40 nM, the “concentration of DNP-GN3 eliciting half-maximal fluorescence association” value ([4]; higher concentration (prozone)) was 0.12 µM and the “concentration of DNP-GN3 eliciting half-maximal fluorescence association” value ([4]; lower concentration) was 0.0074 µM. The “intracellular fluorescence of adherent HepG2 cells” value (HepG2 cells [5]; FIG. 87A) was “dependent on the concentration of both DNP-GN3 and α-DNP antibody”, the “uptake of α-DNP antibody” value (HepG2 cells [5]; target protein at 1 nM) was “not effective” and the “α-DNP antibody depleted from serum” value (α-DNP antibody [6]; 24 hours after a single dose of 1 mpk (vehicle 24%)) was 52%. For the same compound, the “α-DNP antibody depleted from serum” value (α-DNP antibody [6]; 24 hours after a single dose of 10 mpk (vehicle 24%)) was 34%, the “serum α-DNP antibody levels compared to PBS” value (α-DNP antibody [6]; daily 1 mpk) was “significantly reduced” and the “serum α-DNP antibody levels” value (α-DNP antibody [6]; daily treatment, initial antibody dose 500 μg) was “significant decrease”. The “polyclonal α-DNP antibody removed from serum compared to PBS” value (α-DNP antibody [6]; daily treatment, mice immunized with DNP-KLH, each time point) was “significantly more polyclonal α-DNP antibody was removed”, the “α-DNP antibody depletion from serum” value (α-DNP antibody [6]; single dose of 100 mpk) was “Significant depletion” and the “serum α-DNP antibody levels compared to PBS” value (α-DNP antibody [6]; twice-daily 1 mpk) was “significantly reduced”. The toxicity to mice ([7]; all tested concentrations, FIGS. 93A-93C) was “not toxic”, the “body weight or serum liver enzyme levels, control versus treatment groups” value ([7]; up to 100 mpk, FIGS. 93A-93C) was “no significant differences” and the tolerability ([7]; up to doses of 100 mpk) was “well-tolerated”. The “human MIF concentration in serum compared to the PBS control” value (human MIF) was “no significant decreases”.
